In US20230285402A1, “Compositions and Methods of Modulating Short-Chain Dehydrogenase Activity” (BOARD OF REGENTS OF THE UNIVERSITY OF TEXAS SYSTEM, priority 2013, published 2023):
Where two headings read alike, the source gives them in different places.

How the values were obtained:
recombinant 15-PGDH [1] = biological target: T1, recombinant 15-PGDH (Homo sapiens (Human), UniProt P15428); assay: Inhibition of enzymatic activity of recombinant 15-PGDH in vitro (NADH generation); format: biochemical
T1 sequence (P15428 whole entry): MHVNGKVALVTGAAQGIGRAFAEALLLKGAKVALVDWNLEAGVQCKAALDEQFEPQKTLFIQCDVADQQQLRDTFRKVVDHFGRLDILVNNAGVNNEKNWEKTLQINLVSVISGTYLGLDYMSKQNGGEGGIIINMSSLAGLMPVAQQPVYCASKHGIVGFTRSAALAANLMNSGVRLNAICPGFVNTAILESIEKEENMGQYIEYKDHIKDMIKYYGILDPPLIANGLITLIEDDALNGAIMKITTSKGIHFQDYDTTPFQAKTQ

bone marrow = assay: Hematopoietic colonies from wild-type mouse bone marrow treated ex vivo; format: cell-based; conditions: 1 uM, ex vivo on ice 2 hours
Description: Treated marrow is again then plated into methylcellulose for counting of hematopoietic colonies.

recombinant 15-PGDH [2] = biological target: T1, recombinant 15-PGDH; assay: Melting temperature shift of recombinant 15-PGDH (SYPRO Orange); format: binding; conditions: for melting temperature: 20 uM compound
[3] = test system: 15-PGDH-luciferase fusion reporter in V9m, LS174T and V503 cells; assay: 15-PGDH-luciferase fusion reporter induction in colon cancer cell lines; format: cell-based; conditions: for luciferase activity, in words: V9m, LS174T, V503; for Concentration for Full Cell Line Reporter Induction: maximal induction of reporter
15-PGDH mRNA = 15-PGDH mRNA by real-time PCR in colon cancer cell lines; format: cell-based; conditions: treated colon cancer cell lines
Description: In these studies parental cell lines (not containing the 15-PGDH-luciferase reporter) are employed.

A549 cells [4] = assay: PGE2 in medium of IL1-beta stimulated A549 cells; format: cell-based; conditions: for rank of PGE2 level in medium: 100 nM drug; for induction of PGE2 compared with SW033291: 4 nM to 2500 nM
[5] = test system: cell numbers in a cell culture assay; assay: Toxicity in cell culture assay (decrease of cell numbers); format: cell-based; conditions: concentration needed to decrease cell numbers
Procedure: Time to inhibition refers to the time needed to inhibit the generation of NADH by 15-PGDH from the moment with drug is added into the reaction mix. Delta Tm refers to the shift in melting temperature of recombinant 15-PGDH in the presence of drug (with cofactor NADH also present). Concentration of Full Cell Line Reporter Induction refers to the concentration of drug that needs to be added to reporter cell line to achieve maximal induction of the 15-PGDH-luciferase gene fusion reporter cassette, as measured by luciferase assays. Hepatocyte stability refers to the half-life of compound in the presence of hepatocytes in culture. Toxicity refers to the concentration of compound needed to decrease cell numbers in a cell culture assay.

A549 cells [6] = assay: Cellular toxicity by CellTiter-Glo; format: cell-based; conditions: concentrations of up to 10 μM; 24 hours
Procedure: FIGS. 38(A-C) show assays of cellular toxicity on A549 cells at 24 hours of 15-PGDH inhibitors as assayed by CellTiter-Glo measurement.

mice = assay: Homing of CFSE labeled donor bone marrow cells in lethally irradiated mice; format: in vivo, mouse
Procedure: Drugs are administered following radiation, following the transplant, and again at 8 hours after the transplant.

[7] = test system: PGE2 in colon, bone marrow, liver, lung; assay: PGE2 in mouse tissues after IP injection; format: in vivo; conditions: after IP injection
Procedure: Shown is measurement by Elisa of PGE2 (ng PGE2/mg of tissue protein) from 4 mouse tissues: lung, liver, colon and bone marrow. […] Tissues were harvested for PGE2 assay at either 2 hour (2 h) or 3 hour (3 h) time points following drug injection.

[8] = read-out: Enzyme Inhibitor IC50 (nM) at 5 nM 15-PGDH, 5 nM recombinant human 15-PGDH

## 4-((3-amino-4-phenyl-6-(thiophen-2-yl)thieno[2,3-b]pyridin-2-yl)sulfonyl)butyl acetate [SW209128]
Recombinant 15-PGDH [1]; [8]
  IC50: 4910 nM

## CCCCC[C@H](O)/C=C/[C@H]1[C@H](O)CC(=O)[C@@H]1C/C=C\CCCC(=O)O [PGE2]
Bone marrow
  increase in colonies compared with SW033291 treated marrow, in words: lesser increase

## CS(=O)(=O)c1sc2nc(-c3cccs3)cc(-c3ccccc3)c2c1N [SW033290]
Recombinant 15-PGDH [1]; [8]
  IC50: 525 nM

## COc1ccc(OC)c(N(CC(=O)Nc2cccnc2)S(=O)(=O)c2ccccc2)c1 [SW054384]
Recombinant 15-PGDH [2]; melting temperature shift, cofactor 10 μM and 100 μM
  direct binding to 15-PGDH, in words: cannot be demonstrated to bind
[3]
  concentration of maximum activity: 6.25 µM
  luciferase activity, in words: increase luciferase activity
15-PGDH mRNA
  15-PGDH mRNA levels: do not in general alter 15-PGDH mRNA levels
A549 cells [4]; compound from 24 hours before IL1-beta, maintained next 26 hours
  PGE2 level: lower level of PGE2

## O=C(c1ccc2nc(-c3ccccc3)c(-c3ccccc3)nc2c1)N1CCCCC1 [SW145753]
[3]
  luciferase activity, in words: increase luciferase activity
15-PGDH mRNA
  15-PGDH mRNA levels: do not in general alter 15-PGDH mRNA levels
A549 cells [4]; IL1-beta 23 hours, compound for last 5 hours
  15-PGDH activity in cells as reflected in PGE2 levels: clear inhibition of 15-PGDH activity

## CCCC[S+]([O-])c1sc2nc(-c3cccs3)ccc2c1N (stereo not shown) [SW206980]
A549 cells [4]; IL-1β 16 h, then compound 8 h
  highest PGE2 level in medium: 2500 pg/mL
[5]
  Toxicity: >7.5 µM
A549 cells [6]
  effect on CellTitre-Glo levels: No effect

## CCCC[S+]([O-])c1sc2nc(-c3nccs3)ccc2c1N (stereo not shown) [SW206992]
Recombinant 15-PGDH [1]; Table 2 summary, read-out: IC50
  IC50: 1.41 nM
Recombinant 15-PGDH [1]; [8]
  IC50: 1.41 nM
Recombinant 15-PGDH [1]; time to inhibit NADH generation after drug is added, 10 nM
  Time to inhibition (10 nM): ~2 min
Recombinant 15-PGDH [2]
  Δ Tm (NADH): 19 °C
Recombinant 15-PGDH [2]; 10 μM 15-PGDH, NAD(+) 100 μM, control 49
  melting temperature: 59 degrees
Recombinant 15-PGDH [2]; 10 uM 15-PGDH, NADH 100 uM, control 55
  melting temperature: 68.5 degrees
[3]; exposure for 24 hours
  concentration needed to induce maximal reporter induction: ≥ 1000 nM
[3]
  Concentration for Full Cell Line Reporter Induction: >1 µM
A549 cells [4]; IL-1β 16 h, then compound 8 h
  concentration at which maximal effect on PGE2 is attained: 2.5 µM
  highest PGE2 level in medium: 2100 pg/mL
[5]
  Toxicity: >7.5 µM
A549 cells [6]
  effect on CellTitre-Glo levels: No effect

## CCCC[S+]([O-])c1sc2nc(-c3ccccc3)nc(-c3ccccc3)c2c1N (stereo not shown) [SW208065]
Recombinant 15-PGDH [2]; shift in melting temperature, cofactor NADH present
  Δ Tm (NADH): 13 °C
[3]
  Concentration for Full Cell Line Reporter Induction: ~0.1 µM

## CCCC[S+]([O-])c1sc2nc(-c3nccs3)cc(-c3ccccc3)c2c1N (stereo not shown) [SW208066]
A549 cells [4]
  rank of PGE2 level in medium: highest levels of PGE2

## CCCC[S+]([O-])c1sc2nc(-c3cccs3)nc(-c3ccccc3)c2c1N (stereo not shown) [SW208067]
A549 cells [4]
  rank of PGE2 level in medium: highest levels of PGE2

## CCCCSc1ncccc1N [SW208068]
Recombinant 15-PGDH [1]; [8]
  IC50: > 7500 nM

## CCCC[S+]([O-])c1ncccc1N (stereo not shown) [SW208070]
Recombinant 15-PGDH [1]; [8]
  IC50: > 7500 nM

## CCCC[S+]([O-])c1sc2nc(-c3cccs3)cc(-c3ccc(Br)cc3)c2c1N (stereo not shown) [SW208199]
Recombinant 15-PGDH [1]; [8]
  IC50: 2.9 nM

## CCCCSc1cc2ccc(-c3ccccc3)nc2s1 [SW208430, 2-(butylthio)-6-phenylthieno[2,3-b]pyridine]
Recombinant 15-PGDH [1]; [8]
  IC50: > 2500 nM

## CCCC[S+]([O-])c1cc2ccc(-c3ccccc3)nc2s1 (stereo not shown) [SW208432, 2-(butylsulfinyl)-6-phenylthieno[2,3-b]pyridine]
Recombinant 15-PGDH [1]; [8]
  IC50: 3.53 nM

## CCCCS(=O)(=O)c1cc2ccc(-c3ccccc3)nc2s1 [SW208434]
Recombinant 15-PGDH [1]; [8]
  IC50: > 2500 nM

## CCCCSc1sc2nc(-c3ccccc3)ccc2c1N [SW208435, 2-(butylthio)-6-phenylthieno[2,3-b]pyridin-3-amine]
Recombinant 15-PGDH [1]; [8]
  IC50: > 2500 nM

## CCCC[S+]([O-])c1sc2nc(-c3cccs3)cc(C)c2c1N (stereo not shown) [SW208488, 2-(butylsulfinyl)-4-methyl-6-(thiophen-2-yl)thieno[2,3-b]pyridin-3-amine]
Recombinant 15-PGDH [1]; [8]
  IC50: 1.43 nM

## CCCCSc1nc2nc(-c3cccs3)ccc2[nH]1 [SW208494, 2-(butylthio)-5-(thiophen-2-yl)-3H-imidazo[4,5-b]pyridine]
Recombinant 15-PGDH [1]; [8]
  IC50: > 7500 nM

## CC(C)[S+]([O-])c1sc2nc(-c3nccs3)cc(-c3cccnc3)c2c1N (stereo not shown) [SW208778]
Recombinant 15-PGDH [1]; [8]
  IC50: 3.99 nM

## CCCC[S+]([O-])c1sc2nc(-c3nccs3)c(C(=O)OCC)c(-c3ccc(Br)cc3)c2c1N (stereo not shown) [SW209123, Ethyl 3-amino-4-(4-bromophenyl)-2-(butylsulfinyl)-6-(thiazol-2-yl)thieno[2,3-b]pyridine-5-carboxylate]
Recombinant 15-PGDH [1]; [8]
  IC50: 40.8 nM

## CCCC[S+]([O-])c1sc2nc(-c3nccs3)cc(-c3nccs3)c2c1N (stereo not shown) [SW209124, 2-(butylsulfinyl)-4,6-di(thiazol-2-yl)thieno[2,3-b]pyridin-3-amine]
A549 cells [4]
  induction of PGE2 compared with SW033291: increased activity relative to SW033291

## CCCC[S+]([O-])c1sc2nc(-c3nccs3)cc(-c3nccn3C)c2c1N (stereo not shown) [SW209125, 2-(butylsulfinyl)-4-(1-methyl-1H-imidazol-2-yl)-6-(thiazol-2-yl)thieno[2,3-b]pyridin-3-amine]
A549 cells [4]
  induction of PGE2 compared with SW033291: increased activity relative to SW033291

## CC(=O)OCCCC[S+]([O-])c1sc2nc(-c3cccs3)cc(-c3ccccc3)c2c1N (stereo not shown) [SW209129, 4-((3-amino-4-phenyl-6-(thiophen-2-yl)thieno[2,3-b]pyridin-2-yl)sulfinyl)butyl acetate]
Recombinant 15-PGDH [1]; [8]
  IC50: 41.5 nM

## Nc1c([S+]([O-])CCCCO)sc2nc(-c3cccs3)cc(-c3ccccc3)c12 (stereo not shown) [SW209271, 4-((3-amino-4-phenyl-6-(thiophen-2-yl)thieno[2,3-b]pyridin-2-yl)sulfinyl)butan-1-ol]
Recombinant 15-PGDH [1]; [8]
  IC50: 34.2 nM

## CC(=O)OCCCS(=O)(=O)c1sc2nc(-c3cccs3)cc(-c3ccccc3)c2c1N [SW209272, 3-((3-amino-4-phenyl-6-(thiophen-2-yl)thieno[2,3-b]pyridin-2-yl)sulfonyl)propyl acetate]
Recombinant 15-PGDH [1]; [8]
  IC50: 530 nM

## CC(=O)OCCC[S+]([O-])c1sc2nc(-c3cccs3)cc(-c3ccccc3)c2c1N (stereo not shown) [SW209273, 3-((3-amino-4-phenyl-6-(thiophen-2-yl)thieno[2,3-b]pyridin-2-yl)sulfinyl)propyl acetate]
Recombinant 15-PGDH [1]; [8]
  IC50: 21.6 nM

## CC(C)[S+]([O-])c1sc2nc(-c3nccs3)cc(-c3nccn3C)c2c1N (stereo not shown) [SW209279, 2-(isopropylsulfinyl)-4-(1-methyl-1H-imidazol-2-yl)-6-(thiazol-2-yl)thieno[2,3-b]pyridin-3-amine]
Recombinant 15-PGDH [1]; [8]
  IC50: 4.18 nM

## CCC[S+]([O-])c1sc2nc(-c3nccs3)cc(-c3nccn3C)c2c1N (stereo not shown) [SW209280, 4-(1-methyl-1H-imidazol-2-yl)-2-(propylsulfinyl)-6-(thiazol-2-yl)thieno[2,3-b]pyridin-3-amine]
Recombinant 15-PGDH [1]; [8]
  IC50: 3.73 nM

## Nc1c([S+]([O-])CCCCCl)sc2nc(-c3cccs3)cc(-c3ccccc3)c12 (stereo not shown) [SW209329, 2-((4-chlorobutyl)sulfinyl)-4-phenyl-6-(thiophen-2-yl)thieno[2,3-b]pyridin-3-amine]
Recombinant 15-PGDH [1]; [8]
  IC50: 4.36 nM

## CCCCS(=O)(=O)c1sc2nc(-c3nccs3)cc(-c3ccc(CO)cc3)c2c1N [SW209333]
Recombinant 15-PGDH [1]; [8]
  IC50: > 2500 nM

## CCCC[S+]([O-])c1sc2nc(-c3nccs3)cc(-c3cnc(C)n3C)c2c1N (stereo not shown) [SW209415, 2-(butylsulfinyl)-4-(1,2-dimethyl-1H-imidazol-5-yl)-6-(thiazol-2-yl)thieno[2,3-b]pyridin-3-amine]
Recombinant 15-PGDH [1]
  share of 15-PGDH inhibitory activity due to the (+) optical isomer: at least 98%
mice; 10 mg/kg IP, FIG. 140
  increase of homed donor cells in recipient bone marrow: approximately 2.5 fold

## CCCC[S+]([O-])CSc1nc(-c2nccs2)cc(-c2nccn2C)c1C#N (stereo not shown) [SW209427]
Recombinant 15-PGDH [1]; [8]
  IC50: 1480 nM

## CCCCC(C)(C)[C@H](O)/C=C/[C@H]1[C@H](O)CC(=O)[C@@H]1C/C=C\CCCC(=O)O [dmPGE2, 16,16-dimethyl PGE2]
Bone marrow
  increase in colonies compared with SW033291 treated marrow, in words: slightly greater increase

## COc1ccc2c(c1)c(CC(=O)O)c(C)n2C(=O)c1ccc(Cl)cc1 [indomethacin, reference compound]
mice; with SW033291 10 mg/kg IP
  effect of co-treatment on the homing effect of SW033291: near completely blocked

## (+) SW209415
[7]
  time of peak PGE2: 3 h

## (−) SW209415
Recombinant 15-PGDH [1]; FIG. 135, read-out: IC50
  IC50: 164 nM
